Patent US7001983B1, “Antipathogenic synthetic peptides and compositions comprising them” (priority 1997, dated 2006)
Square brackets hold non-standard residues; d marks the D form. Peptide text beside a SMILES is read from it.

How the values were obtained:
Escherichia coli D21 = type: cell-based; details: for Minimal Inhibitory Concentration E. coli (D21): 100% inhibition of growth after 18–20 h
[1] = tested on: Acinetobacter calcoaceticus Ac11; type: cell-based; details: 100% inhibition of growth after 18–20 h
Bacillus megaterium Bm11 = type: cell-based; details: 100% inhibition of growth after 18–20 h
[2] = tested on: human red blood cells (hRBC); test: Hemolysis of human red blood cells; type: cell-based; details: for % hemolysis at 50 μM peptide / % hemolysis at 100 μM: hRBC, 30 min at 37° C.
Experimental: (ix) Hemolysis of human red blood cells. The peptides were tested for their hemolytic activities against human red blood cells (hRBC). Fresh hRBC with EDTA were rinsed 3 times with PBS (35 mM phosphate buffer/0.15 M NaCl, pH 7.3) by centrifugation for 10 min at 800 g and resuspended in PBS. Peptides dissolved in PBS were then added to 50 μL of a solution of the stock hRBC in PBS to reach a final volume of 100 μL (final erythrocyte concentration, 5% v/v). The resulting suspension was incubated under agitation for 30 min at 37° C. The samples were then centrifuged at 800 g for 10 min. Release of hemoglobin was monitored by measuring the absorbance of the supernatant at 540 nm. Controls for zero hemolysis (blank) and 100% hemolysis consisted of hRBC suspended in PBS and Triton 1%, respectively.

[3] = tested on: Micrococcus Iuteus ATCC 9341; test: Antibacterial activity (MIC), growth inhibition in LB medium; type: cell-based, Micrococcus luteus; details: 100% inhibition of growth after 18–20 h
Experimental: (viii) Antibacterial activity of the peptides. The antibacterial activity of the diastereomers was examined in sterile 96-well plates (Nunc F96 microtiter plates) in a final volume of 100 μL as follows: Aliquots (50 μl) of a suspension containing bacteria at a concentration of 10^6 Colony-Forming Units (CFU)/ml LB (Lauria broth) medium were added to 50 μL of water or 66% pooled normal human serum in PBS, containing the peptide in 2-fold serial dilutions. Growth inhibition was determined by measuring the absorbance at 492 nm with a Microplate autoreader E1309 (Bio-tek Instruments), following incubation for 18–20 h at 37° C. […] The bacteria used were: Escherichia coli D21, Pseudomonas aeruginosa ATCC 27853, Acinetobacter calcoaceticus Ac11, Salmonella typhimurium LT2, Bacillus megaterium Bm11, Micrococcus Iuteus ATCC 9341, Bacillus subtilis ATCC 6051.

[4] = tested on: Bacillus subtilis ATCC 6051; type: cell-based; details: 100% inhibition of growth after 18–20 h
[5] = tested on: Pseudomonas aeruginosa ATCC 27853; details: for Minimal Inhibitory Concentration P. aeruginosa (ATCC 27853): 100% inhibition of growth after 18–20 h
Experimental: (viii) Antibacterial activity of the peptides.
Antibacterial activity of the mixtures was determined as described in Experimental procedures, section (xii).

SMILES	Minimal Inhibitory Concentration E. coli (D21) (Escherichia coli D21) [µM]	Minimal Inhibitory Concentration A. calcoaceticus (Ac11) [1] [µM]	Minimal Inhibitory Concentration B. megaterium (Bm11) (Bacillus megaterium Bm11) [µM]	% hemolysis at 50 μM peptide [2] [%]	Minimal Inhibitory Concentration M. luteus (ATCC 9341) [3] [µM]	Minimal Inhibitory Concentration B. subtilis (ATCC 6051) [4] [µM]	Minimal Inhibitory Concentration E. coli (D21) 0% Serum (Escherichia coli D21; 0% Serum) [µM]	Minimal Inhibitory Concentration E. coli (D21) 33% Serum (Escherichia coli D21; 33% pooled human serum) [µM]	Minimal Inhibitory Concentration P. aeruginosa (ATCC-27853) 0% Serum ([5]; 0% Serum) [µM]	Minimal Inhibitory Concentration P. aeruginosa (ATCC-27853) 33% Serum ([5]; 33% pooled human serum) [µM]	Minimal Inhibitory Concentration P. aeruginosa (ATCC 27853) [5] [µM]	% hemolysis at 100 μM [2] [%]	hemolytic activity in comparison to melittin (fold less) ([2]; hRBC dose response) [fold]
CC[C@H](C)[C@H](NC(=O)[C@H](CCCCN)NC(=O)[C@H]1CCCN1C(=O)[C@@H](NC(=O)[C@H](CC(C)C)NC(=O)[C@H](C)NC(=O)[C@H](Cc1ccccc1)NC(=O)[C@H](Cc1ccccc1)NC(=O)CN)[C@@H](C)CC)C(=O)N[C@H](C(=O)N[C@@H](CO)C(=O)N[C@@H](CO)C(=O)N1CCC[C@H]1C(=O)N[C@@H](CC(C)C)C(=O)N[C@@H](Cc1ccccc1)C(=O)N[C@@H](CCCCN)C(=O)N[C@H](C(=O)N[C@H](CC(C)C)C(=O)N[C@H](CC(C)C)C(=O)N[C@@H](CO)C(=O)N[C@@H](C)C(=O)N[C@H](C(=O)NCCN)C(C)C)[C@@H](C)O)[C@@H](C)CC [Peptide 2, [D]P^7L^18L^19[1-22]-TApar]	12.5	12.5	2.5	0	–	–	–	–	–	–	–	–	–
CC[C@H](C)[C@H](NC(=O)[C@H](CCCCN)NC(=O)[C@H]1CCCN1C(=O)[C@@H](NC(=O)[C@H](CC(C)C)NC(=O)[C@H](C)NC(=O)[C@H](Cc1ccccc1)NC(=O)[C@H](Cc1ccccc1)NC(=O)CN)[C@@H](C)CC)C(=O)N[C@H](C(=O)N[C@@H](CO)C(=O)N[C@@H](CO)C(=O)N1CCC[C@H]1C(=O)N[C@@H](CC(C)C)C(=O)N[C@@H](Cc1ccccc1)C(=O)N[C@@H](CCCCN)C(=O)N[C@H](C(=O)N[C@@H](CC(C)C)C(=O)N[C@@H](CC(C)C)C(=O)N[C@@H](CO)C(=O)N[C@@H](C)C(=O)N[C@H](C(=O)NCC(=O)N[C@@H](CO)C(=O)N[C@@H](C)C(=O)N[C@@H](CC(C)C)C(=O)N[C@@H](CO)C(=O)N[C@@H](CO)C(=O)N[C@@H](CO)C(=O)NCC(=O)NCC(=O)N[C@@H](CCC(N)=O)C(=O)N[C@@H](CCC(=O)NCCN)C(=O)NCCN)C(C)C)[C@@H](C)O)[C@@H](C)CC [Peptide 12, [D]P^7-TApar]	10	5	1.2	49	5	2	–	–	–	–	–	–	–
CC(C)C[C@H](NC(=O)[C@H](CCCCN)NC(=O)[C@@H](CC(C)C)NC(=O)[C@@H](CC(C)C)NC(=O)[C@H](CC(C)C)NC(=O)[C@@H](N)CCCCN)C(=O)N[C@@H](CCCCN)C(=O)N[C@H](CC(C)C)C(=O)N[C@@H](CCCCN)C(=O)N[C@H](CC(C)C)C(=O)N[C@@H](CC(C)C)C(=O)N[C@@H](CCCCN)C(N)=O [Peptide 24, [D]-L^3,4,8,10-K5L7] (H-KL[dL][dL]KLK[dL]K[dL]LK-NH2)	7	20	0.25	–	–	2	7	7	10	10	10	0	–
CC(C)C[C@H](NC(=O)[C@H](CC(C)C)NC(=O)[C@@H](CC(C)C)NC(=O)[C@@H](CC(C)C)NC(=O)[C@H](CC(C)C)NC(=O)[C@@H](N)CCCCN)C(=O)N[C@@H](CCCCN)C(=O)N[C@H](CC(C)C)C(=O)N[C@@H](CC(C)C)C(=O)N[C@H](CC(C)C)C(=O)N[C@@H](CC(C)C)C(=O)N[C@@H](CCCCN)C(N)=O [Peptide 22, [D]-L^3,4,8,10-K3L9] (H-KL[dL][dL]LLK[dL]L[dL]LK-NH2)	9	20	0.7	–	–	1.1	–	–	–	–	125	58	> 60
CC[C@H](C)[C@H](NC(=O)[C@H](CCCCN)NC(=O)[C@H]1CCCN1C(=O)[C@@H](NC(=O)[C@H](CC(C)C)NC(=O)[C@H](C)NC(=O)[C@H](Cc1ccccc1)NC(=O)[C@H](Cc1ccccc1)NC(=O)CNC(=O)[C@H](CCCCN)NC(=O)[C@@H](N)CCCCN)[C@@H](C)CC)C(=O)N[C@H](C(=O)N[C@@H](CO)C(=O)N[C@@H](CO)C(=O)N1CCC[C@H]1C(=O)N[C@@H](CC(C)C)C(=O)N[C@@H](Cc1ccccc1)C(=O)N[C@@H](CCCCN)C(=O)N[C@H](C(=O)N[C@H](CC(C)C)C(=O)N[C@H](CC(C)C)C(=O)N[C@@H](CO)C(=O)N[C@@H](C)C(=O)N[C@H](C(=O)NCCN)C(C)C)[C@@H](C)O)[C@@H](C)CC [Peptide 5, K^1K^2[D]P^7L^18L^19[1-22]-TApar]	3.5	3.5	0.75	0	–	–	–	–	–	–	–	–	–
CC(C)C[C@H](NC(=O)[C@H](CCCCN)NC(=O)[C@@H](CC(C)C)NC(=O)[C@@H](CC(C)C)NC(=O)[C@H](CCCCN)NC(=O)[C@@H](N)CCCCN)C(=O)N[C@@H](CCCCN)C(=O)N[C@H](CC(C)C)C(=O)N[C@@H](CCCCN)C(=O)N[C@H](CC(C)C)C(=O)N[C@@H](CCCCN)C(=O)N[C@@H](CCCCN)C(N)=O [Peptide 25, [D]-L^3,4,8,10-K7L5] (H-KK[dL][dL]KLK[dL]K[dL]KK-NH2; N-terminus assumed)	80	200	1	–	–	100	–	–	–	–	>200	0	–
CC[C@@H](C)[C@@H](NC(=O)[C@H](CC(C)C)NC(=O)[C@H](C)NC(=O)[C@@H]1CCCN1C(=O)[C@H](CC(C)C)NC(=O)CNC(=O)[C@@H](NC(=O)[C@@H](NC(=O)[C@H](CC(C)C)NC(=O)[C@H](NC(=O)[C@H](CCCCN)NC(=O)[C@H](CC(C)C)NC(=O)[C@H](NC(=O)[C@H](C)N)C(C)C)C(C)C)[C@@H](C)O)[C@@H](C)O)C(=O)N[C@@H](CO)C(=O)N[C@@H](Cc1c[nH]c2ccccc12)C(=O)N[C@H](C(=O)N[C@H](CCCCN)C(=O)N[C@@H](CCCNC(=N)N)C(=O)NCCN)[C@@H](C)CC [Peptide 21, [D]-V^5V^8I^17K^21-[4-22]-TAmel]	21	14	1.2	0	28	–	–	–	–	–	–	–	–
CC(C)C[C@H](NC(=O)[C@H](CC(C)C)NC(=O)[C@@H](CC(C)C)NC(=O)[C@H](N)CCCCN)C(=O)N[C@H](CCCCN)C(=O)N[C@H](CC(C)C)C(=O)N[C@H](CCCCN)C(=O)N[C@@H](CC(C)C)C(=O)N[C@H](CCCCN)C(=O)N[C@@H](CC(C)C)C(=O)N[C@H](CC(C)C)C(=O)N[C@H](CCCCN)C(N)=O [Peptide 27, [D]-K^1,5,7,9,12L^2,6,11-K5L7] (H-[dK][dL]LL[dK][dL][dK]L[dK]L[dL][dK]-NH2)	7	–	0.2	–	–	–	–	–	–	–	–	0	–
CC[C@H](C)[C@H](NC(=O)[C@H](CCCCN)NC(=O)[C@H]1CCCN1C(=O)[C@@H](NC(=O)[C@H](CC(C)C)NC(=O)[C@H](C)NC(=O)[C@H](Cc1ccccc1)NC(=O)[C@H](Cc1ccccc1)NC(=O)CNC(=O)[C@@H](N)CCCCN)[C@@H](C)CC)C(=O)N[C@H](C(=O)N[C@@H](CO)C(=O)N[C@@H](CO)C(=O)N1CCC[C@H]1C(=O)N[C@@H](CC(C)C)C(=O)N[C@@H](Cc1ccccc1)C(=O)N[C@@H](CCCCN)C(=O)N[C@H](C(=O)N[C@H](CC(C)C)C(=O)N[C@H](CC(C)C)C(=O)N[C@@H](CO)C(=O)N[C@@H](C)C(=O)N[C@H](C(=O)NCCN)C(C)C)[C@@H](C)O)[C@@H](C)CC [Peptide 4, K^1[D]P^7L^18L^19[1-22]-TApar]	7.5	7.5	1.5	0	–	–	–	–	–	–	–	–	–
